SMILES strings stand for the structures. Values joined by “and” are separate entries in the source; they are usually repeats but may differ in a detail not shown here. Equal entries are not always repeated.

T1 sequence (P08546 whole entry): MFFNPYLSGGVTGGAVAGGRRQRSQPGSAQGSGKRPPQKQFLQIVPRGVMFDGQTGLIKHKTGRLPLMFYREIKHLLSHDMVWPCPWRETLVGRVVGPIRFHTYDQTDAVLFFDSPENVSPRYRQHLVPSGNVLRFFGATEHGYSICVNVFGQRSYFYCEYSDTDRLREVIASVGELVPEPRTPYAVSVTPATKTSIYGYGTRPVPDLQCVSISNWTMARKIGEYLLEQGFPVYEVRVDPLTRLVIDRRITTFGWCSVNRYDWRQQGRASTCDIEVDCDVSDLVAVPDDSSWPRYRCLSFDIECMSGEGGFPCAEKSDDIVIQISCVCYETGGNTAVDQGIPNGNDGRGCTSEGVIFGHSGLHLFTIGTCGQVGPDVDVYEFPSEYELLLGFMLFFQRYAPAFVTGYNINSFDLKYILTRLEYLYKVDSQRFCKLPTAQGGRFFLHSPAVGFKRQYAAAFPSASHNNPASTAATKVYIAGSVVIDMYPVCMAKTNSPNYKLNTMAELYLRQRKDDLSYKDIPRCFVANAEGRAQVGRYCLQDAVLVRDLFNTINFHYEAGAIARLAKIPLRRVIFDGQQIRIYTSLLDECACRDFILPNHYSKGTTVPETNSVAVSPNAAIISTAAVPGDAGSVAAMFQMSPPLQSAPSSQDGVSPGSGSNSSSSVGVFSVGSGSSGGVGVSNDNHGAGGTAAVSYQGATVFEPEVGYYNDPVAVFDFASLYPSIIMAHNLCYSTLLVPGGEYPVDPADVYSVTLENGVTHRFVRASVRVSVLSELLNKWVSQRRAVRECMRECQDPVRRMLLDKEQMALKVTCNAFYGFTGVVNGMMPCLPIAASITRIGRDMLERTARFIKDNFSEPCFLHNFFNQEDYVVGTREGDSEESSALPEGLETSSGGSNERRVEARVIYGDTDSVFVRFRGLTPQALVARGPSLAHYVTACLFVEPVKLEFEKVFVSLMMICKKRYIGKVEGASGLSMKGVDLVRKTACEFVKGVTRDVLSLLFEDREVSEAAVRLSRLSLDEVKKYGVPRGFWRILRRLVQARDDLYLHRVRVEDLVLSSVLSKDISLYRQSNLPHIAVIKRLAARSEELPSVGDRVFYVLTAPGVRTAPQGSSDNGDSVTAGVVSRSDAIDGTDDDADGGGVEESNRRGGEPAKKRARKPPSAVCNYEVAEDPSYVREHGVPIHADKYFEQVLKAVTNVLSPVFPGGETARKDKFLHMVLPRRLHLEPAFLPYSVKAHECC

The first assay has as its target T1, HCMV polymerase (Human cytomegalovirus, UniProt P08546).
T1 construct: made in house; host or cells: recombinant baculovirus-infected SF-9 cells
As to the kind of experiment: HCMV polymerase assay (scintillation proximity assay). The format is biochemical. To be noted: Table 9; read-out: CMV pol Assay- IC50. The method, then:
The HCMV polymerase assay is performed using a scintillation proximity assay (SPA) as described in several references, such as N. D. Cook, et al., Pharmaceutical Manufacturing International, pages 49-53 (1992); K. Takeuchi, Laboratory Practice, September issue (1992); U.S. Pat. No. 4,568,649 (1986); which are incorporated by reference herein. Reactions are performed in 96-well plates. The assay is conducted in 100 μl volume with 5.4 mM HEPES (pH 7.5), 11.7 mM KCl, 4.5 mM MgCl2, 0.36 mg/ml BSA, and 90 nM ^3H-dTTP. Assays are run with and without CHAPS, (3-[(3-Cholamidopropyl)-dimethylammonio]-1-propane-sulfonate) at a final concentration of 2 mM. HCMV is diluted in enzyme dilution buffer containing 50% glycerol, 250 mM NaCl, 10 mM HEPES (pH 7.5), 100 pg/ml BSA, and 0.01% sodium azide. The HCMV polymerase, which is expressed in recombinant baculovirus-infected SF-9 cells and purified according to literature procedures, is added at 10% (or 10 μl) of the final reaction volume, i.e., 100 μl. Compounds are diluted in 50% DMSO and 10 μl are added to each well. Control wells contain an equivalent concentration of DMSO. Unless noted otherwise, reactions are initiated via the addition of 6 nM biotinylated poly(dA)-oligo(dT) template/primer to reaction mixtures containing the enzyme, substrate, and compounds of interest. Plates are incubated in a 25° C. of 37° C. H2O bath and terminated via the addition of 40 μl/reaction of 0.5 M EDTA (pH 8) per well. Reactions are terminated within the time-frame during which substrate incorporation is linear and varied depending upon the enzyme and conditions used, i.e., 30 min. for HCMV polymerase. Ten μl of streptavidin-SPA beads (20 mg/ml in PBS/10% glycerol) are added following termination of the reaction. Plates are incubated 10 min. at 37° C., then equilibrated to room temperature, and counted on a Packard Topcount. Linear regressions are performed and IC50's are calculated using computer software. Results of the testing of compounds of the present invention in this assay are shown in Tables 1, 2, 5, 9, 10, 11, 13 (except for the last compound which was tested under modified conditions) and 14 below.
One may read the IC50 as the concentration that gives 50% inhibition. Take `CCCCCC(C)NC(=O)c1ccc2cccnc2c1O` (stereo not drawn): the half-inhibitory concentration (IC50) came out at 7.9 µM.
As for `CC(NC(=O)c1ccc2cccnc2c1O)c1ccc(Br)cc1` (stereo not drawn), the half-inhibitory concentration (IC50) was determined as 2.6 µM.
The same measure, in the same setting: for `O=C(NCCc1ccc(O)cc1)c1ccc2cccnc2c1O` the value was 20.1 µM; for `O=C(NC1CCCc2ccccc21)c1ccc2cccnc2c1O` (stereo not drawn), 7.6 µM.
On to `O=C(NCc1ccc(Cl)cc1Cl)c1ccc2cccnc2c1O`, for which the IC50 came to 5.2 µM.
Consider `O=C(NCc1cc(Cl)ccc1Cl)c1ccc2cccnc2c1O`, for which the concentration for half-maximal inhibition (IC50) was found to be 17 µM.
As to `CC1CCCC(NC(=O)c2ccc3cccnc3c2O)C1` (stereo not drawn), the half-maximal inhibitory concentration (IC50) was 20.6 µM.
On the same count and under the same terms, for `O=C(NCC(c1ccccc1)c1ccccc1)c1ccc2cccnc2c1O` the value was 0.9 µM; for `O=C(NCCc1ccc(Oc2ccccc2)cc1)c1ccc2cccnc2c1O`, 4.5 µM.
For the compound `O=C(NCc1ccccc1Sc1ccccc1CO)c1ccc2cccnc2c1O`, the concentration for half-maximal inhibition (IC50) was found to be 9.4 µM.
Same read-out and setting: for `CC1CCC(NC(=O)c2ccc3cccnc3c2O)CC1` (stereo not drawn) the value was 23.3 µM; for `O=C(NCCc1ccc(Cl)cc1)c1ccc2cccnc2c1O`, 6.7 µM.
On to `O=C(NCCc1cccc(Cl)c1)c1ccc2cccnc2c1O`, for which the concentration for half-maximal inhibition (IC50) worked out at 6.9 µM.
Still for that read-out and setting: for `O=C(N[C@H](CO)Cc1ccc(O)cc1)c1ccc2cccnc2c1O` the value was 3.1 µM; for `O=C(NCCc1ccc(Cl)cc1Cl)c1ccc2cccnc2c1O`, 9 µM.
For `CC(C)(C)C1CCC(NC(=O)c2ccc3cccnc3c2O)CC1` (stereo not drawn), the IC50 worked out at 2.3 µM.
On the same count and under the same terms, for `O=C(NCCCc1ccccc1)c1ccc2cccnc2c1O` the value was 9.3 µM.
Same read-out and setting: the same measure for `COC(=O)C(Cc1ccc(O)cc1)NC(=O)c1ccc2cccnc2c1O` (stereo not drawn): 12.1 µM; for `O=C(NCCSCc1c(Cl)cccc1Cl)c1ccc2cccnc2c1O`: 8.4 µM.
The same measure, in the same setting: the same measure for `COC(=O)[C@H](Cc1ccc([N+](=O)[O-])cc1)NC(=O)c1ccc2cccnc2c1O`: 10.8 µM; for `O=C(NCCC(c1ccccc1)c1ccccc1)c1ccc2cccnc2c1O`: under 1.5 µM; for `Cc1ccccc1CNC(=O)c1ccc2cccnc2c1O`: 23.2 µM.
Regarding `CCCCCCCCCCNC(=O)c1ccc2cccnc2c1O`, the IC50 turned out to be 7.1 µM.
For the compound `O=C(NCc1cccc(Cl)c1)c1ccc2cccnc2c1O`, the half-maximal inhibitory concentration (IC50) is 8.7 µM.
The same measure, in the same setting: the same measure for `O=C(NCCc1c[nH]c2ccccc12)c1ccc2cccnc2c1O`: 11.1 µM; for `O=C(NC1CCCCCCC1)c1ccc2cccnc2c1O`: 7.6 µM; for `O=C(N[C@H](c1ccccc1)[C@@H](O)c1ccccc1)c1ccc2cccnc2c1O`: 2.9 µM and 6.4 µM.
The same measure, in the same setting: the same measure for `O=C(NCc1cccc2ccccc12)c1ccc2cccnc2c1O`: 3.7 µM; for `O=C(NCC1CCCCC1)c1ccc2cccnc2c1O`: 24.2 µM; for `CC1CCCC(NC(=O)c2ccc3cccnc3c2O)C1C` (stereo not drawn): 8.4 µM.
As for `O=C(NC1CCCCCC1)c1ccc2cccnc2c1O`, the half-inhibitory concentration (IC50) turned out to be 23.8 µM.
On to `O=C(N[C@@H](c1ccccc1)[C@H](O)c1ccccc1)c1ccc2cccnc2c1O`, for which the half-inhibitory concentration (IC50) was 2.2 µM and 4.7 µM.
For the compound `CCCCC(CC)CNC(=O)c1ccc2cccnc2c1O` (stereo not drawn), the IC50 was determined as 3.2 µM.
For `O=C(NCc1ccccc1Cl)c1ccc2cccnc2c1O`, the IC50 came to 19.7 µM.

Staying with this assay, now noted: Table 10; CMV pol Assay; read-out: IC50.
In the case of `O=C(Nc1cc(F)cc(F)c1)c1ccc2cccnc2c1O`, the 50% inhibitory concentration (IC50) turned out to be 26.3 µM.
Still for that read-out and setting: the same measure for `O=C(Nc1ccc2ccccc2c1)c1ccc2cccnc2c1O`: 15.5 µM; for `COc1ccc(NC(=O)c2ccc3cccnc3c2O)cc1`: 30.1 µM.
Still for that read-out and setting: for `O=C(Nc1ccc(Br)cc1)c1ccc2cccnc2c1O` the value was 29.7 µM; for `COc1cc(Cl)c(C)cc1NC(=O)c1ccc2cccnc2c1O`, 7.9 µM.
The same measure, in the same setting: for `Cc1ccccc1NC(=O)c1ccc2cccnc2c1O` the value was 13.4 µM.
Turning to `Cc1cccc(NC(=O)c2ccc3cccnc3c2O)c1C`, the IC50 was 8.6 µM.
On to `O=C(Nc1cc(F)c(F)cc1F)c1ccc2cccnc2c1O`, for which the IC50 is 27.4 µM.
Regarding `O=C(Nc1ccc(Cl)c(Cl)c1)c1ccc2cccnc2c1O`, the IC50 is 32.7 µM.
As to `O=C(Nc1ccc(Br)cc1F)c1ccc2cccnc2c1O`, the concentration for half-maximal inhibition (IC50) is 6.9 µM.
On to `O=C(Nc1ccccc1Br)c1ccc2cccnc2c1O`, for which the IC50 amounted to 16 µM.
The same measure, in the same setting: the same measure for `O=C(Nc1cc(C(F)(F)F)ccc1Cl)c1ccc2cccnc2c1O` [drawing 221]: 14 µM; for `Cc1cc(Cl)ccc1NC(=O)c1ccc2cccnc2c1O`: 3.6 µM.
Same read-out and setting: the same measure for `Cc1ccc(Cl)c(NC(=O)c2ccc3cccnc3c2O)c1`: 7.5 µM; for `O=C(Nc1cccc(C(F)(F)F)c1)c1ccc2cccnc2c1O`: 18.4 µM; for `O=C(Nc1ccc([N+](=O)[O-])cc1Cl)c1ccc2cccnc2c1O`: 3.3 µM.
Turning to `O=C(Nc1ccc(Br)cn1)c1ccc2cccnc2c1O`, the IC50 turned out to be 21.6 µM.
Same read-out and setting: for `O=C(Nc1ccccc1[N+](=O)[O-])c1ccc2cccnc2c1O` the value was over 100 µM; for `Cc1ccc(NC(=O)c2ccc3cccnc3c2O)c(C)c1` [drawing 223], 22.4 µM.
Same read-out and setting: the same measure for `O=C(Nc1ccc(Oc2ccccc2)cc1)c1ccc2cccnc2c1O`: 6.9 µM.
Take `O=C(Nc1cccc(Br)c1)c1ccc2cccnc2c1O`: the IC50 was 9.2 µM.
Still for that read-out and setting: for `CSc1ccccc1NC(=O)c1ccc2cccnc2c1O` the value was 8.2 µM.
Take `O=C(Nc1cc([N+](=O)[O-])cc([N+](=O)[O-])c1)c1ccc2cccnc2c1O`: the IC50 was found to be 7.1 µM.
Same read-out and setting: for `COc1ccc(Cl)c(NC(=O)c2ccc3cccnc3c2O)c1` the value was 7 µM; for `O=C(Nc1ccc(S(=O)(=O)Nc2ccc3cn[nH]c3c2)cc1)c1ccc2cccnc2c1O`, 2.4 µM.
The same measure, in the same setting: the same measure for `COc1ccc(NC(=O)c2ccc3cccnc3c2O)c([N+](=O)[O-])c1`: 22.4 µM.

The assay is the same for the next values; noted with them: Table 11; read-out: CMV pol Assay IC50.
Take `O=C(Nc1nnc(NCCc2ccccc2)s1)c1ccc2cccnc2c1O`: the IC50 is 2.4 µM.
As to `O=C(Nc1nnc(NC(C(=O)O)c2ccc3c(c2)OCO3)s1)c1ccc2cccnc2c1O` (stereo not drawn), the 50% inhibitory concentration (IC50) is 22.6 µM.
Still for that read-out and setting: the same measure for `CSCC[C@H](Nc1nnc(NC(=O)c2ccc3cccnc3c2O)s1)C(=O)OC(C)(C)C`: 26.6 µM; for `CC(C)(C)OC(=O)C(Nc1nnc(NC(=O)c2ccc3cccnc3c2O)s1)c1ccc2c(c1)OCO2` (stereo not drawn): 4.3 µM.
The same measure, in the same setting: the same measure for `CC(C)(C)OC(=O)[C@H](CCCCNC(=O)OCc1ccccc1)Nc1nnc(NC(=O)c2ccc3cccnc3c2O)s1`: under 3.1 µM.
Consider `CC(C)(C)OC(=O)NCCNc1nnc(NC(=O)c2ccc3cccnc3c2O)s1`, for which the 50% inhibitory concentration (IC50) came out at 14.3 µM.
Still for that read-out and setting: the same measure for `O=C(Nc1nnc(NC(C(=O)O)c2cccc3c2OCO3)s1)c1ccc2cccnc2c1O` (stereo not drawn): 18.9 µM; for `CC(C)C[C@H](Nc1nnc(NC(=O)c2ccc3cccnc3c2O)s1)C(=O)OC(C)(C)C`: 11.4 µM.
Still for that read-out and setting: the same measure for `COC(=O)[C@@H](Cc1ccccc1)Nc1nnc(NC(=O)c2ccc3cccnc3c2O)s1`: 9.4 µM; for `O=C(Nc1nnc(N[C@@H](Cc2c[nH]c3ccccc23)C(=O)O)s1)c1ccc2cccnc2c1O`: 8.5 µM.
On the same count and under the same terms, for `CC(C)(C)OC(=O)[C@H](Cc1ccc(O)cc1)Nc1nnc(NC(=O)c2ccc3cccnc3c2O)s1` the value was under 3.1 µM; for `CCCCNc1nnc(NC(=O)c2ccc3cccnc3c2O)s1`, 2.5 µM; for `COC(=O)[C@H](Cc1ccccc1)Nc1nnc(NC(=O)c2ccc3cccnc3c2O)s1`, 15.4 µM.

Staying with this assay, now noted: Table 13; read-out: IC50.
For the compound `O=C(NC1=NC(=O)C(Cc2ccc(Cl)cc2)S1)c1ccc2cccnc2c1O` (stereo not drawn), the IC50 amounted to 1.7 µM.

Still in this assay, the particulars now being: Table 14; read-out: IC50.
As to `CC[C@H](C)C(CO)NC(=O)c1ccc2cccnc2c1O` (stereo partly drawn), the half-inhibitory concentration (IC50) was found to be 26 µM.
In the case of `O=C(NCCOc1ccccc1)c1ccc2cccnc2c1O`, the IC50 stood at 29 µM.
Same read-out and setting: the same measure for `O=C(NCc1ccc(F)c(F)c1)c1ccc2cccnc2c1O`: 42 µM.
The same measure, in the same setting: the same measure for `O=C(NCCNc1ccc([N+](=O)[O-])cn1)c1ccc2cccnc2c1O`: 42 µM.

The same assay, now with this note: pol type CMV; Table 1; read-out: CMV pol Assay IC50.
Turning to `O=C(Nc1nnc(-c2ccc(Cl)cc2)s1)c1ccc2cccnc2c1O` [Example 14, N-[5-(4-Chlorophenyl)-1,3,4-thiadiazol-2-yl]-8-hydroxy-7-quinolinecarboxamide], the half-maximal inhibitory concentration (IC50) turned out to be 23.4 µM.
Still for that read-out and setting: for `O=C(NC1=NC(=O)C(c2ccc(Cl)cc2)S1)c1cc(Br)c2cccnc2c1O` (stereo not drawn) [Example 6, 5-Bromo-N-[5-(4-chlorophenyl)-4,5-dihydro-4-oxo-2-thiazolyl]-8-hydroxy-7-quinolinecarboxamide] the value was 4.1 µM.
Still for that read-out and setting: for `O=C(NCc1ccc(Cl)cc1)c1ccc2cccnc2c1O` [Example 1, N-[(4-Chlorophenyl)methyl]-8-hydroxy-7-quinolinecarboxamide] the value was 10.2 µM.
